Source: PubChem BioAssay AID179 (DTP/NCI, 2004)
Where “and” joins values, the source holds several entries; their conditions need not be identical. Identical values can stand only once. Calls of active or inactive are those of the source.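 The calls were made as follows: active = compounds giving half or more protection of infected cells from virus-caused growth loss, again on retest; inactive = the rest.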 Where a SMILES comes first, the peptide text is derived from it. [ ]: non-standard residue; d: D form. The star is where a group is joined. mTyr = N[CH](Cc1cccc(O)c1)C(=O)O; Cbz = O=C(OCc1ccccc1)*; OBn = c1ccc(CO*)cc1

Tested on: CEM cells HIV-1 protection, formazan growth assay
Experiment: NCI AIDS Antiviral Assay
Settings: for IC50: measured here: growth of uninfected CEM cells
Summary of the method: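 Five concentrations of each compound were applied to infected and uninfected human CEM cells. Protection from HIV-1 was judged from growth measured with a soluble formazan assay.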

Row | Compound | EC50 [µM] | IC50 | outcome
1 | CC(C)(C)OC(=O)NC(Cc1ccc(O)cn1)C(=O)O (centres undefined) | > 200 | > 200 µM | –
2 | CN(NC(=O)/C(=C/c1c(O)ccc2ccccc12)NC(=O)c1ccccc1)c1cn[nH]c(=O)c1Cl | > 200 | > 200 µM | –
3 | Clc1ccc(-c2nnc3n2NC(c2ccccc2)S3)c(Cl)c1 (centres undefined) | > 85.1 | 69.2 µM | –
4 | O=C(/C=C/C1C(=O)NC(=O)NC1=O)CC(=O)C(=O)Nc1cc(Cl)c(Cl)cc1Cl | > 209 | > 209 µM | –
5 | O=C(Sc1nnnn1-c1ccccc1)Sc1nnnn1-c1ccccc1 | 97.7 | 178 µM | –
6 | N#C/C(=C\c1cc(Cl)cc(Cl)c1)c1ccccn1 | > 200 | 8.91 µM | –
7 | O=C(CNc1ccc2c(=S)c3ccccc3[nH]c2c1)Nc1ccccc1-c1ccccc1NC(=O)CNc1ccc2c(=S)c3ccccc3[nH]c2c1 | > 13.8 | 4.47 µM | –
8 | C/C=C(\C)C(=O)O[C@@H]1CC[C@]2(CO2)C2(COC(C)=O)C(OC(C)=O)CC(C)[C@](C)(C[C@H](O)C3=CC(=O)OC3)[C@@H]12 (some centres undefined) | – | – | inactive
9 | CC(c1ccc2c(c1)CCC1C2CC2OC23CC=CC(=O)[C@]13C)C1C[C@]2(C)O[C@]2(C)[C@H](O)O1 (some centres undefined) | > 200 | 45.7 µM | –
10 | N=C(N)N1CCc2ccccc2C1 | > 200 | > 200 µM | –
11 | COc1ccccc1/C=C(\NC(=O)c1ccccc1)C(=O)NC(C)C | > 200 | > 200 µM | –
12 | O=S(=O)([O-])[O-].O=c1[nH]cnc2nc[n-]c12.[OH3+].[OH3+].[Zn+2] | > 21.4 | > 21.4 µM | –
13 | CC(=O)[O-].[Zn].c1ccc(/C(=N\Nc2ccccn2)c2ccccn2)cc1 | – | – | inactive
14 | Nc1nc(N)c(N=O)c(Nc2cccc(Br)c2)n1 | > 200 | 8.51 µM | –
15 | CCS(=O)(=O)CCOP(=O)(c1ccccc1)c1ccccc1 | – | – | inactive
16 | Cc1cc2c(=O)cc(-c3ccncc3)oc2c(C(=O)O)c1C | > 851 | > 851 µM | –
17 | Cc1cn([C@H]2C[C@H](NC(=O)N(O)C[C@H]3O[C@@H](n4cc(C)c(=O)[nH]c4=O)C[C@@H]3O)[C@@H](CO)O2)c(=O)[nH]c1=O | > 200 | > 200 µM | –
18 | O=C(Nc1nc2ccccc2[nH]1)C(=O)NC12CC3CC(CC(C3)C1)C2 | – | – | inactive
19 | CC(=O)OC1CCC2(C)C(C1)CC(OC(C)=O)C1C2CC(OC(C)=O)C2(C)C(C(C)CC=C(c3ccccc3)c3ccccc3)CCC12 (centres undefined) | > 7.94 | 5.01 µM | –
20 | Cc1ccc2c(c1)CSCCO2 | > 105 | 14.8 µM | –
21 | COc1ccc(COCC(Cn2ccnc2)OCc2ccc(C(=O)O)cc2)cc1 (centres undefined) | > 631 | 589 µM | –
22 | COC(=O)C(Cc1cccc(O)c1)NC(=O)C(CC(=O)OCc1ccccc1)NC(=O)OCc1ccccc1 (centres undefined) (Cbz-Asp(OBn)-[mTyr]-OMe; configuration not given here) | > 200 | 91.2 µM | –

Row | Compound | EC50 [µM] | IC50 | outcome
23 | CCOC(=O)c1cc(NC(=O)c2ccccc2)c(=O)n2c(cc3c(Cl)cccc32)c1O | > 200 | > 200 µM | –
24 | CC(C)CCC[C@H](C)[C@H]1CC[C@H]2[C@@H]3CC=C4CC(OC(=O)OC5CCC6(C)CC7CCC6(OO7)C5(C)C)CC[C@]4(C)[C@H]3CC[C@]12C (some centres undefined) | > 200 | > 200 µM | –
25 | CCCCCCc1cc(C(=O)Nc2ccc(Cl)cc2)nc(=S)[nH]1 | > 708 | 479 µM | –
26 | COc1cc(C(C2=C(O)c3ccccc3C(=O)C2=O)C2=C(O)c3ccccc3C(=O)C2=O)cc(Br)c1O | > 200 | 32.4 µM | –
27 | Cc1cc(S(=O)(=O)Nc2n[nH]c(Nc3ccc4ccccc4c3)n2)c(S)cc1Cl | > 200 | 49 µM | –
28 | CCN(CC)c1ccc(/C=C2\CCc3ccc([N+](=O)[O-])cc3C2=O)cc1 | > 20 | 1.07 µM | –
29 | N#C/C(=C\c1ccccc1[N+](=O)[O-])c1ccccc1 | > 5.75 | > 5.75 µM | –
30 | C[N+]1(CCCC(O)CC[N+]2(C)CCCC2)CCCC1 (centres undefined) | – | – | inactive
31 | O=C1N[C@H]2CS(=O)(=O)C[C@H]2N1 | > 200 | > 200 µM | –
32 | O=[N+]([O-])c1ccc([N+](=O)[O-])c(Cl)c1 | > 200 | 3.16 µM | –
33 | O=C1CS(=O)(=O)C(c2ccc(F)cc2)N1N1C(=O)CS(=O)(=O)C1c1ccc(F)cc1 (centres undefined) | > 200 | > 200 µM | –
34 | Nc1nc(CC2(O)CCCCC2)cc(-c2ccccc2)n1 | > 1.95 | > 1.95 µM | –
35 | c1ccc(SCCP(CCP(c2ccccc2)c2ccccc2)c2ccccc2)cc1 (centres undefined) | > 21.9 | 0.355 µM | –
36 | N#C/C(=C\c1ccc(Cl)cc1)c1ccccc1 | > 200 | 32.4 µM | –
37 | COc1cc(NCc2ccc3nc(N)nc(N)c3c2C)cc(OC)c1OC (tested in a mixture with another compound) | > 4.47 | 0.00363 µM | –
38 | C=C1C[C@](OC)([C@H](O)C(=O)N[C@@H](OC)[C@@H]2C[C@@H](O)C(C)(C)[C@@H](C[C@@H](COC)OC)O2)O[C@H](C)[C@@H]1C | – | – | inactive
39 | Nc1nc(=S)c2[nH]cnc2[nH]1 | > 60.3 | 0.955 µM | –
40 | O=C1c2ccccc2-c2nc3ncccc3cc21 | > 200 | 33.9 µM | –
41 | Cc1c(CN2CCOCC2)cc(C(C)C)c(O)c1CN1CCOCC1 | > 200 | > 200 µM | –
42 | CCN1C[C@]2(COC(=O)c3ccccc3N3C(=O)CC(C)C3=O)CCC(OC)C34[C@@H]5C[C@@H]6C(OC)[C@@H]5[C@](O)(C[C@@H]6OC)[C@@](O)([C@H]13)[C@@H](OC)[C@@H]42 (some centres undefined) | – | – | inactive
43 | N#C/C(=C\NC(=S)Nc1ccc(S(=O)(=O)Nc2ccccn2)cc1)C(N)=O | > 200 | > 200 µM | –
44 | CCN(CC)C(=S)SNCCc1ccc(S(N)(=O)=O)cc1 | > 200 | 10.5 µM | –

Row | Compound | EC50 [µM] | IC50 | outcome
45 | CCOC(C[C@H](O[Si](C)(C)C(C)(C)C)[C@H]1COC(=S)S1)OCC | > 200 | 155 µM | –
46 | N#CC(C#N)=CN | > 200 | > 200 µM | –
47 | CC1=[N+]([O-])c2ccccc2C(=O)C1=O | – | – | inactive
48 | O=C(C1OC1c1ccc(F)cc1)C12CC3CC(CC(C3)C1)C2 (centres undefined) | > 200 | 12 µM | –
49 | CC(=O)N1CN2C(=O)CCC2c2cc(C)ccc21 (centres undefined) | – | – | inactive
50 | COc1ccc(/C=C2/SC(c3c(O)ccc4ccccc34)N(NC(=O)CCCCCCCCC(=O)NN3C(=O)/C(=C\c4ccc(OC)c(OC)c4)SC3c3c(O)ccc4ccccc34)C2=O)cc1OC (centres undefined) | > 200 | 8.51 µM | –
51 | CCOC1Oc2ccccc2-c2nc(C)c(C#N)cc21 (centres undefined) | > 83.2 | > 83.2 µM | –
52 | CCn1c2c(n(CC)c1=S)-c1c(n(CC)c(=S)n1CC)SSSS2 | > 58.9 | > 58.9 µM | –
53 | CSC1=C(C(=O)Nc2ccccc2)C(N)=NC1=O | > 200 | 141 µM | –
54 | C[C@H](OC(=O)/C=C/c1ccc(O)c(O)c1)[C@H](C)OC(=O)/C=C/c1ccc(O)c(O)c1 | > 200 | 3.47 µM | –
55 | CCCC(OCC)(OCC)OCC | > 1320 | > 1320 µM | –
56 | c1ccc2c(c1)Nc1nc3ccccc3nc1N2 | > 100 | > 100 µM | –
57 | CCCCCCCCCCCc1c(O)c(O)cc2nc3ccc(Sc4ccccc4)cc3nc12 | > 15.1 | 4.57 µM | –
58 | CC1=N/C(=C\c2ccc(Cl)cc2)C(=O)O1 | > 32.4 | > 32.4 µM | –
59 | CCC12CCCN(C1)C(=O)Cc1c([nH]c3ccccc13)C(=O)C2 (centres undefined) | > 8.13 | > 8.13 µM | –
60 | OCC1NC(CC2OC(CO)C(O)C(O)C2O)C(O)C(O)C1O (centres undefined) | > 200 | > 200 µM | –
61 | Cc1ccc(S(=O)(=O)N/N=C2/CC[C@H](C(C)(C)C)C[C@@H]2C)cc1 | > 200 | 21.9 µM | –
62 | C#CCOC(=O)c1ccccc1O | > 200 | > 200 µM | –
63 | CCCCCNC(=O)C(O)C(O)C(=O)NCCCCC (centres undefined) | > 126 | > 126 µM | –
64 | [O-][n+]1ccccc1SSc1cccc[n+]1[O-] | > 2 | 0.141 µM | –
65 | O=C(O)/C=C/C(=O)Nc1ccccc1 | > 200 | > 200 µM | –
66 | O=c1c2ccccc2nc(-c2ccccc2)n1-c1nccs1 | > 200 | 22.4 µM | –

Row | Compound | EC50 [µM] | IC50 | outcome
67 | COC(=O)CN(CC1O[C@@H]2OC(C)(C)O[C@@H]2C1NC(C)=O)C(=O)OCc1ccccc1 (some centres undefined) | > 200 | > 200 µM | –
68 | [O-]c1c(-c2cccc3ccccc23)sc(-c2cccc3ccccc23)[n+]1-c1ccccc1 | – | – | inactive
69 | COC(=O)C1(O)c2ccccc2N=C2C(=O)c3ccccc3N21 (centres undefined) | > 200 | > 200 µM | –
70 | O=C1C(Cl)N(c2cccc(Cl)c2)C1c1c[nH]c2ccccc12 (centres undefined) | > 282 | 102 µM | –
71 | COc1ccc(C(=O)O)c(Cc2ccc3ccccc3c2)c1 | – | – | inactive
72 | O=C(O)CC1(CC(=O)Nc2nccs2)CCCCC1 | > 126 | > 126 µM | –
73 | CC1=CC(=O)N(c2c(C)cccc2Cl)C(C)N1 (centres undefined) | > 1000 | > 1000 µM | –
74 | CN(/N=N/N(C)c1ccccc1)c1ccccc1 | > 200 | > 200 µM | –
75 | N#CC(C#N)=c1cc/c(=c2/ccc(=C(C#N)C#N)s2)s1 | > 24.5 | > 24.5 µM | –
76 | OCC[P+](c1ccccc1)(c1ccccc1)c1ccccc1 | > 200 | 12.3 µM | –
77 | COc1ccc2c(c1O)C13CCN(C)C(C2)C1CCC1(C3)OCCO1 (centres undefined) | > 380 | 204 µM | –
78 | O=C(OCCOCCO)c1ccccc1-c1c2cc(I)c(=O)c(I)c-2oc2c(I)c(O)c(I)cc12 | > 200 | 5.13 µM | –
79 | C#CC1(O)C(/C=N/O)OC(n2ccc(=O)[nH]c2=O)C1O[Si](C)(C)C(C)(C)C (centres undefined) | > 200 | 72.4 µM | –
80 | COc1nc(N)c(NC2OC(CO)C(O)C2O)c(=O)[nH]1 (centres undefined) | > 200 | 112 µM and 126 µM | –
81 | O=c1[nH]ncc2c1nnn2C1CCC(CO)O1 (centres undefined) | > 200 | > 200 µM | –
82 | COc1cccc2c1C(=O)c1c(O)c3c(c(O)c1C2=O)C[C@@](O)(C(=O)CO)C[C@@H]3OC1CC(N(C)C)C(O)C(C)O1 (some centres undefined) | > 0.2 | 0.0631 µM | –
83 | CCOC(=O)/C(C1=N[C@H](C(=O)OCC)CS1)=C(\C)O | > 631 | > 631 µM | –
84 | CCOC(=O)CC(=O)Sc1ccccc1 | > 251 | 20.9 µM | –
85 | CCOC(=O)C1C2CCC(C2)C1(CCl)C(=O)OCC (centres undefined) | > 251 | > 251 µM | –
